Test results as given in US20230398130A1, “METHODS AND COMPOSITIONS FOR DIFFERENTIATING STEM CELLS” (Massachusetts Institute of Technology, priority 2020, published 2023).

Tests used:
ISC-enriched organoids [1] = test: Primary screen, 384-well 2.5-D organoid differentiation (ENR+CD, 6 days, Target Selective Inhibitor Library, vs whole-plate median): ATP (CellTiter-Glo 3D, CTG); conditions: for Dose.FC.CTG / Z.CTG: primary screen; for Dose.FC.CTG: ENR+CD 6 days, FC vs plate median; for Z.CTG: standard z score of FC
ISC-enriched organoids [2] = test: Primary screen, 384-well 2.5-D organoid differentiation (ENR+CD, 6 days): basal lysozyme secretion (LYZ.NS); format: cell-based, murine; conditions: for Dose.FC.LYZ.NS / Z.LYZ.NS: primary screen; for Dose.FC.LYZ.NS: ENR+CD 6 days, FC vs plate median; for Z.LYZ.NS: standard z score of FC
Description: (§1) High-throughput screening.

ISC-enriched organoids [3] = test: Primary screen, 384-well 2.5-D organoid differentiation (ENR+CD, 6 days): carbachol-induced lysozyme secretion (LYZ.S); format: cell-based, murine; conditions: for Dose.FC.LYZ.S: primary screen, ENR+CD 6 days, FC vs plate median
Description: as §1

[4] = dose 0.08 uM (1st of 4 lines per treatment; dose not printed in this part)
[5] = dose 0.40 uM (2nd of 4 lines per treatment; dose not printed in this part)
[6] = dose 2.00 uM (3rd of 4 lines per treatment; dose not printed in this part)
[7] = dose 10.00 uM (4th of 4 lines per treatment; dose not printed in this part)

| Structure (SMILES) | SSMD.CTG_Rep (strictly standardized mean difference) (ISC-enriched organoids [1]; [4]) | SSMD.CTG_Rep (strictly standardized mean difference) (ISC-enriched organoids [1]; [5]) | SSMD.CTG_Rep (strictly standardized mean difference) (ISC-enriched organoids [1]; [6]) | SSMD.CTG_Rep (strictly standardized mean difference) (ISC-enriched organoids [1]; [7]) | Dose.FC.CTG (ISC-enriched organoids [1]; dose 0.08 uM) | Z.CTG (ISC-enriched organoids [1]; dose 0.08 uM) | Dose.FC.CTG (ISC-enriched organoids [1]; dose 0.40 uM) | Z.CTG (ISC-enriched organoids [1]; dose 0.40 uM) | Dose.FC.CTG (ISC-enriched organoids [1]; dose 2.00 uM) | Z.CTG (ISC-enriched organoids [1]; dose 2.00 uM) | Dose.FC.CTG (ISC-enriched organoids [1]; dose 10.00 uM) | Z.CTG (ISC-enriched organoids [1]; dose 10.00 uM) | SSMD.LYZ.NS_Rep (strictly standardized mean difference) (ISC-enriched organoids [2]; [4]) | SSMD.LYZ.NS_Rep (strictly standardized mean difference) (ISC-enriched organoids [2]; [5]) | SSMD.LYZ.NS_Rep (strictly standardized mean difference) (ISC-enriched organoids [2]; [6]) | SSMD.LYZ.NS_Rep (strictly standardized mean difference) (ISC-enriched organoids [2]; [7]) | Dose.FC.LYZ.NS (ISC-enriched organoids [2]; dose 0.08 uM) | Z.LYZ.NS (ISC-enriched organoids [2]; dose 0.08 uM) | Dose.FC.LYZ.NS (ISC-enriched organoids [2]; dose 0.40 uM) | Z.LYZ.NS (ISC-enriched organoids [2]; dose 0.40 uM) | also measured |
| --- | --- | --- | --- | --- | --- | --- | --- | --- | --- | --- | --- | --- | --- | --- | --- | --- | --- | --- | --- | --- | --- |
| O=C(O)c1ccc(N2C(=O)/C(=C\c3ccc(-c4ccc([N+](=O)[O-])cc4)o3)C=C2c2ccccc2)cc1 [4E1RCat] | 0.790 | 0.559 | 0.022 | −0.026 | 0.246 log 2 fold change | 0.587 | 0.362 log 2 fold change | 0.864 | 0.006 log 2 fold change | 0.015 | −0.011 log 2 fold change | −0.026 | 0.883 | −0.121 | 0.437 | 0.053 | 0.100 log 2 fold change | 0.874 | −0.018 log 2 fold change | −0.154 | Dose.FC.LYZ.NS (ISC-enriched organoids [2]; dose 2.00 uM): 0.151 log 2 fold change; Z.LYZ.NS (ISC-enriched organoids [2]; dose 2.00 uM): 1.316; Dose.FC.LYZ.NS (ISC-enriched organoids [2]; dose 10.00 uM): 0.007 log 2 fold change; Z.LYZ.NS (ISC-enriched organoids [2]; dose 10.00 uM): 0.062; SSMD.LYZ.S_Rep (strictly standardized mean difference) (ISC-enriched organoids [3]; [4]): 0.712; Z.LYZ.S (standard z score) (ISC-enriched organoids [3]; [4]): 0.690; SSMD.LYZ.S_Rep (strictly standardized mean difference) (ISC-enriched organoids [3]; [5]): 0.185; Z.LYZ.S (standard z score) (ISC-enriched organoids [3]; [5]): 0.247; SSMD.LYZ.S_Rep (strictly standardized mean difference) (ISC-enriched organoids [3]; [6]): 0.311; Z.LYZ.S (standard z score) (ISC-enriched organoids [3]; [6]): 0.316; SSMD.LYZ.S_Rep (strictly standardized mean difference) (ISC-enriched organoids [3]; [7]): 0.321; Z.LYZ.S (standard z score) (ISC-enriched organoids [3]; [7]): 0.530; Dose.FC.LYZ.S (ISC-enriched organoids [3]; dose 0.08 uM): 0.107 log 2 fold change; Dose.FC.LYZ.S (ISC-enriched organoids [3]; dose 0.40 uM): 0.038 log 2 fold change; Dose.FC.LYZ.S (ISC-enriched organoids [3]; dose 2.00 uM): 0.049 log 2 fold change; Dose.FC.LYZ.S (ISC-enriched organoids [3]; dose 10.00 uM): 0.082 log 2 fold change |
| CC(C)N(CC[C@H](c1ccccc1)c1cc(CO)ccc1O)C(C)C [5-hydroxymethyl Tolterodine (PNU 200577, 5-HMT, 5-HM)] | −0.118 | 0.291 | 0.114 | 0.061 | −0.062 log 2 fold change | −0.149 | 0.087 log 2 fold change | 0.207 | 0.034 log 2 fold change | 0.082 | 0.017 log 2 fold change | 0.040 | 0.915 | 0.760 | 0.947 | 0.223 | 0.184 log 2 fold change | 1.599 | 0.076 log 2 fold change | 0.665 | Dose.FC.LYZ.NS (ISC-enriched organoids [2]; dose 2.00 uM): 0.154 log 2 fold change; Z.LYZ.NS (ISC-enriched organoids [2]; dose 2.00 uM): 1.344; Dose.FC.LYZ.NS (ISC-enriched organoids [2]; dose 10.00 uM): 0.034 log 2 fold change; Z.LYZ.NS (ISC-enriched organoids [2]; dose 10.00 uM): 0.293; SSMD.LYZ.S_Rep (strictly standardized mean difference) (ISC-enriched organoids [3]; [4]): 0.460; Z.LYZ.S (standard z score) (ISC-enriched organoids [3]; [4]): 0.417; SSMD.LYZ.S_Rep (strictly standardized mean difference) (ISC-enriched organoids [3]; [5]): 0.266; Z.LYZ.S (standard z score) (ISC-enriched organoids [3]; [5]): 0.231; SSMD.LYZ.S_Rep (strictly standardized mean difference) (ISC-enriched organoids [3]; [6]): 0.174; Z.LYZ.S (standard z score) (ISC-enriched organoids [3]; [6]): 0.152; SSMD.LYZ.S_Rep (strictly standardized mean difference) (ISC-enriched organoids [3]; [7]): −0.042; Z.LYZ.S (standard z score) (ISC-enriched organoids [3]; [7]): −0.044; Dose.FC.LYZ.S (ISC-enriched organoids [3]; dose 0.08 uM): 0.065 log 2 fold change; Dose.FC.LYZ.S (ISC-enriched organoids [3]; dose 0.40 uM): 0.036 log 2 fold change; Dose.FC.LYZ.S (ISC-enriched organoids [3]; dose 2.00 uM): 0.023 log 2 fold change; Dose.FC.LYZ.S (ISC-enriched organoids [3]; dose 10.00 uM): −0.007 log 2 fold change |
| C=CCNC1=C2C[C@@H](C)C[C@H](OC)[C@H](O)[C@@H](C)/C=C(\C)[C@H](OC(N)=O)[C@@H](OC)/C=C\C=C(/C)C(=O)NC(=CC1=O)C2=O [17-AAG (Tanespimycin)] | −0.926 | −1.023 | −1.783 | −1.348 | −1.012 log 2 fold change | −2.418 | −1.262 log 2 fold change | −3.015 | −1.459 log 2 fold change | −3.486 | −1.446 log 2 fold change | −3.454 | −1.180 | −1.186 | −1.053 | −1.183 | −0.193 log 2 fold change | −1.682 | −0.205 log 2 fold change | −1.786 | Dose.FC.LYZ.NS (ISC-enriched organoids [2]; dose 2.00 uM): −0.142 log 2 fold change; Z.LYZ.NS (ISC-enriched organoids [2]; dose 2.00 uM): −1.239; Dose.FC.LYZ.NS (ISC-enriched organoids [2]; dose 10.00 uM): −0.187 log 2 fold change; Z.LYZ.NS (ISC-enriched organoids [2]; dose 10.00 uM): −1.631; SSMD.LYZ.S_Rep (strictly standardized mean difference) (ISC-enriched organoids [3]; [4]): −1.387; Z.LYZ.S (standard z score) (ISC-enriched organoids [3]; [4]): −1.826; SSMD.LYZ.S_Rep (strictly standardized mean difference) (ISC-enriched organoids [3]; [5]): −1.428; Z.LYZ.S (standard z score) (ISC-enriched organoids [3]; [5]): −2.199; SSMD.LYZ.S_Rep (strictly standardized mean difference) (ISC-enriched organoids [3]; [6]): −1.462; Z.LYZ.S (standard z score) (ISC-enriched organoids [3]; [6]): −2.219; SSMD.LYZ.S_Rep (strictly standardized mean difference) (ISC-enriched organoids [3]; [7]): −1.655; Z.LYZ.S (standard z score) (ISC-enriched organoids [3]; [7]): −1.975; Dose.FC.LYZ.S (ISC-enriched organoids [3]; dose 0.08 uM): −0.282 log 2 fold change; Dose.FC.LYZ.S (ISC-enriched organoids [3]; dose 0.40 uM): −0.340 log 2 fold change; Dose.FC.LYZ.S (ISC-enriched organoids [3]; dose 2.00 uM): −0.343 log 2 fold change; Dose.FC.LYZ.S (ISC-enriched organoids [3]; dose 10.00 uM): −0.306 log 2 fold change |
| CN1CCc2cc3c(cc2[C@H]1[C@@H]1OC(=O)c2c1ccc1c2OCO1)OCO3 [(+)-Bicuculline] | 0.472 | −0.078 | −0.237 | −0.405 | 0.318 log 2 fold change | 0.760 | −0.029 log 2 fold change | −0.069 | −0.166 log 2 fold change | −0.396 | −0.132 log 2 fold change | −0.315 | 0.481 | 0.106 | 0.276 | 0.175 | 0.092 log 2 fold change | 0.805 | 0.013 log 2 fold change | 0.116 | Dose.FC.LYZ.NS (ISC-enriched organoids [2]; dose 2.00 uM): 0.031 log 2 fold change; Z.LYZ.NS (ISC-enriched organoids [2]; dose 2.00 uM): 0.270; Dose.FC.LYZ.NS (ISC-enriched organoids [2]; dose 10.00 uM): 0.020 log 2 fold change; Z.LYZ.NS (ISC-enriched organoids [2]; dose 10.00 uM): 0.176; SSMD.LYZ.S_Rep (strictly standardized mean difference) (ISC-enriched organoids [3]; [4]): 0.545; Z.LYZ.S (standard z score) (ISC-enriched organoids [3]; [4]): 1.005; SSMD.LYZ.S_Rep (strictly standardized mean difference) (ISC-enriched organoids [3]; [5]): 0.216; Z.LYZ.S (standard z score) (ISC-enriched organoids [3]; [5]): 0.221; SSMD.LYZ.S_Rep (strictly standardized mean difference) (ISC-enriched organoids [3]; [6]): −0.164; Z.LYZ.S (standard z score) (ISC-enriched organoids [3]; [6]): −0.169; SSMD.LYZ.S_Rep (strictly standardized mean difference) (ISC-enriched organoids [3]; [7]): 0.264; Z.LYZ.S (standard z score) (ISC-enriched organoids [3]; [7]): 0.465; Dose.FC.LYZ.S (ISC-enriched organoids [3]; dose 0.08 uM): 0.155 log 2 fold change; Dose.FC.LYZ.S (ISC-enriched organoids [3]; dose 0.40 uM): 0.034 log 2 fold change; Dose.FC.LYZ.S (ISC-enriched organoids [3]; dose 2.00 uM): −0.026 log 2 fold change; Dose.FC.LYZ.S (ISC-enriched organoids [3]; dose 10.00 uM): 0.072 log 2 fold change |
